# Measurements: publication PMC3853024, “Aromatase inhibitor treatment with an intravaginal device and its effect on pre-ovulatory ovarian follicles in a bovine model” (Reproductive Biology and Endocrinology : RB&E, 2013)
# Read-outs that look alike come from different tables or passages of the source.
# Test: Pharmacokinetics of a letrozole-containing intravaginal device in heifers (plasma letrozole by LCMS/MS)
# Type: in vivo, cattle (Hereford-cross beef heifers)
# Details: for half-life: read-out: Half-life (T1/2) (converted); for Cmax: read-out: Maximal concentration (Cmax); for MRT: read-out: Mean residence time (MRT); for clearance: read-out: Systemic clearance (ClS) (converted); for Vd/F: read-out: Volume of distribution (Vz/f)
# Description: Intravaginal devices were prepared using a Cue-Mate spine (Bioniche Animal Health, Bellville, ON, Canada) assembled with two blank (progesterone-free) silicone pods that were coated with a gel-based vehicle containing letrozole or vehicle only (control). The vehicle contained the following (all ingredients % w/w): letrozole 10%, gelatin 20% (Gelatin type B, Fisher Scientific, Pittsburgh, PA, USA), polymer 65% (prepared by mixing distilled water 68%, Poloxamer 188 12% and Poloxamer 407 20%, both from Spectrum Chemical, New Brunswick, NJ, USA) and distilled water 5%.
# Blood samples were collected by coccygeal venipuncture into 10 mL heparinized vacuum tubes (Becton Dickinson Vacutainer Systems, Franklin Lakes, NJ, USA). Samples were collected daily from pre-treatment follicular wave emergence (Day 0) to 12 days after the subsequent ovulation. In a subset of letrozole-treated animals (n=4), frequent blood samples were collected using an in-dwelling jugular catheter, as previously described, at the time of catheter placement and 0, 10, 20, 30 min, 1, 1.5, 2, 3, 4, 6, 8, 12 and 24 h after treatment for measurement of plasma letrozole concentration. Blood samples were centrifuged at 1500 × g for 20 min and plasma was separated and stored in plastic tubes at -20°C.
# Plasma letrozole concentrations were quantified using liquid chromatography tandem mass spectrometry (LCMS/MS), as described. Briefly, letrozole was extracted from […] with […] of 0.1M ammonium acetate followed by the addition of 5 mL methyl t-butyl ether (MTBE) and vortexed for 15 s. The organic layer was removed and transferred to a fresh 15 mL plastic tube and dried by gentle nitrogen gas flow. The dried extract was reconstituted in 1 mL of 100% ethanol. Separation was accomplished by HPLC (Agilent 1200; Agilent, Santa Clara, CA, USA) fitted with an analytical column (50 × 2.1 mm, […] particle size; Betasil C18; Thermo Scientific, Waltham, MA, USA) operated at 35°C. Mass spectra were collected using a tandem mass spectrometer (SCIEX 3000; Applied Bioscience, Foster City, CA, USA) fitted with an electrospray ionisation source, operated in the negative ionisation mode. Quantification was performed using Analyst 1.4.1 software provided by SCIEX (Applied Bioscience). The minimum and maximum values along the standard curve were 0.25 and 500 ng/mL, respectively. The limit of quantification used in this method was 0.25 ng/mL and the mean recovery was 70%.
# The following pharmacokinetic parameters were determined: Cmax (maximum observed plasma concentration of letrozole), tmax (time to reach Cmax), t1/2 (terminal elimination half-life), AUC (area under the plasma letrozole concentration-time curve from zero to infinity calculated as AUCtlast). The concentration of letrozole in plasma as a function of time (C–t) data for each heifer was analyzed by non-compartmental techniques using a computer modeling program (WinNonLin Standard Edition Version 2.1, Pharsight Corporation, Mountain View, CA, USA). Peak letrozole concentration in plasma (Cmax) and time to peak letrozole concentration (tmax) were determined using observed values. The apparent terminal rate constant (λ) was determined by linear regression of the last 6–8 points on the terminal phase of the logarithmic plasma concentration vs time curve. The area under the C–t curve until the final plasma sample (AUClast) was determined using the linear trapezoidal rule. The total area under the curve extrapolated to infinity (AUC0-∞) was calculated by adding the Clast obs/λ + AUClast. The terminal half-life (T1/2λ) was calculated as ln2 ⁄λ. The mean residence time (MRT) was calculated as the area under the moment curve extrapolated to infinity (AUMC0-∞) ⁄AUC0-∞. Systemic clearance (ClS) was determined using the dose divided by AUC0-inf. The apparent volume of distribution (Vλ/f) was calculated by clearance divided by λ. […]
# [1] = Mean of 4 heifers, intravaginal device 1 g letrozole
# [2] = female, Hereford-cross, bovine, plasma, 1 g, Heifer 1, intravaginal device 1 g letrozole
# [3] = female, Hereford-cross, bovine, plasma, 1 g, Heifer 2, intravaginal device 1 g letrozole
# [4] = female, Hereford-cross, bovine, plasma, 1 g, Heifer 3, intravaginal device 1 g letrozole
# [5] = female, Hereford-cross, bovine, plasma, 1 g, Heifer 4, intravaginal device 1 g letrozole
# [6] = female, Hereford-cross, bovine, plasma, 1 g, Mean of 4 heifers, intravaginal device 1 g letrozole
smiles,measurement,setting,value
N#Cc1ccc(C(c2ccc(C#N)cc2)n2cncn2)cc1 [Letrozole],Area under the curve (AUClast),"Heifer 1, intravaginal device 1 g letrozole",3538.1 hours x ng/mL
same,Area under the curve (AUClast),"Heifer 2, intravaginal device 1 g letrozole",2697.7 hours x ng/mL
same,Area under the curve (AUClast),"Heifer 3, intravaginal device 1 g letrozole",2583.1 hours x ng/mL
same,Area under the curve (AUClast),"Heifer 4, intravaginal device 1 g letrozole",1698.0 hours x ng/mL
same,Area under the curve (AUClast),[1],2629.2 hours x ng/mL
same,Half-life (T1/2),[1],33.3 h
same,half-life,[2],35.1 h
same,Cmax,[2],32.4 ng/mL
same,MRT,[2],71.5 h
same,clearance,[2],1.67 mL/min/kg
same,Vd/F,[2],6.2 L/kg
same,half-life,[3],20.4 h
same,Cmax,[3],35.3 ng/mL
same,MRT,[3],56.2 h
same,clearance,[3],3.33 mL/min/kg
same,Vd/F,[3],4.9 L/kg
same,half-life,[4],41.9 h
same,Cmax,[4],27.3 ng/mL
same,MRT,[4],65.5 h
same,clearance,[4],3.33 mL/min/kg
same,Vd/F,[4],9.9 L/kg
same,half-life,[5],35.7 h
same,Cmax,[5],31.7 ng/mL
same,MRT,[5],48.7 h
same,clearance,[5],5 mL/min/kg
same,Vd/F,[5],13.2 L/kg
same,half-life,[6],33 h
same,Cmax,[6],31.7 ng/mL
same,MRT,[6],60.5 h
same,clearance,[6],3.33 mL/min/kg
same,Vd/F,[6],8.5 L/kg
same,bioavailability,"female, Hereford-cross, bovine, plasma, other: intravaginal device, 1 g, Mean, intravaginal device AUClast versus single iv injection AUClast (unpublished data), corrected by dose",16%
same,Tmax,"female, Hereford-cross, bovine, plasma, other: intravaginal device, 1 g, post-device insertion, n=4, read-out: Time of maximal concentration in plasma (tmax)",24 h
same,Duration of letrozole release from the intravaginal device,"post-insertion, inferred from plasma letrozole concentration profile",24 h
